Laboratory results: patent US20240252472A1, “COMBINATIONS FOR TREATING CANCER” (Purdue Pharma L.P., priority 2023, published 2024)

How the values were obtained:
[1] = test system: subcutaneous plasmacytoma derived from MM1.S cells; assay: Second subcutaneous plasmacytoma model, CB17-SCID mice; type: in vivo; conditions: EDO-S101 30 mg/kg i.v. weekly, daratumumab 8 mg/kg i.p. weekly, 4 weeks; vehicle 34 days
From the text: For the second subcutaneous human plasmacytoma model, CB17-SCID mice (The Jackson Laboratory) were used. CB17-SCID mice were randomised into groups (n=5). The design of the experiment (treatment doses and time schedule) was identical to the experiment described above with NSG mice except for the inoculation of NK cells, since CB17-SCID mice have their own functional NK cells.
For the second subcutaneous human plasmacytoma model, CB17-SCID mice (20 female mice, 5-6 weeks old; from The Jackson Laboratory) were used. The design of the experiment (treatment doses and time schedule) was identical to the one performed with NSG mice except for the inoculation of human NK cells, since CB17-SCID mice hold their own functional NK cells (Dorshkind et al., J Immunol 134:3798-3801, 1985).
In the second xenograft plasmacytoma model, CB17-SCID mice bearing a subcutaneous plasmacytoma derived from MM1.S cells were randomized to receive vehicle, daratumumab, EDO-S101 or the double combination. Mice were treated with EDO-S101 on Mondays and daratumumab was administered on Tuesdays. […] Furthermore, statistical differences in survival were also found between the combination vs vehicle (58 days±2.739 vs 34 days±2.191 days, respectively; p=0.003).

[2] = test system: CD38 mRNA; assay: CD38 mRNA by RT-qPCR in MM cell lines; type: cell-based, human; conditions: MM1.S, JJN3, RPMI-8226; 1 and 2.5 μM, 36 hours
Protocol: Real time quantitative PCR (RT-qPCR) Total RNA was isolated using the RNeasy Mini Kit (Qiagen, Hilden, Germany). Following reverse transcription, PCR was performed using TaqMan Gene Expression Assays (Applied Biosystems, Foster City, CA, USA): CD38 (Hs01120071_m1), MICA (Hs00741286_m1), MICB (Hs00792952_m1) and GAPDH (Hs99999905_m1). The results were expressed as fold change relative to expression of the target gene in control cells, using endogenous expression of GAPDH for normalization.

[3] = test system: CD38 expressed on MM cells; assay: Daratumumab binding to myeloma cells pre-treated with EDO-S101, flow cytometry; type: cell-based, human; conditions: JJN3, RPMI-8226, MOLP-8; EDO-S101 1 or 2.5 μM 48 h, then daratumumab 10 μg/ml
Protocol: Evaluation of daratumumab binding to myeloma cells To evaluate daratumumab binding to myeloma cells, MM cell lines were first pre-treated with tinostamustine (1 or 2.5 μM) or DMSO for 48 hours. Then cells were washed to remove tinostamustine or DMSO from the culture medium, and daratumumab (10 μg/ml) was added and incubated for 30 minutes. After that time, cells were washed with PBS twice and incubated during 30 additional minutes with anti-human-IgG1-AlexaFluor488 (Invitrogen, Carlsbad, CA, USA). Cells were acquired in a FACSCalibur cytometer and normalized MFI was calculated as described above.
Flow cytometry was used to analyse the binding of daratumumab to MM cells pre-treated with EDO-S101. The anti-human-IgG1-Alexa Fluor 488 (Invitrogen, Carlsbad, CA, USA) antibody recognizes and binds daratumumab's Fc region and, therefore, it can be detected using flow cytometry.
MM cells (JJN3, MM1.S, RPMI-8226, MOLP-8) were treated with EDO-S101 (1 μM or 2.5 μM) in accordance with the general methods outlined above. Following treatment, the cells were washed with PBS, and incubated at 37° C. for 30 minutes with 10 μg/ml daratumumab. Cells were then washed with PBS, anti-human-IgG1-Alexa Fluor 488 was added, and the cells were incubated at 37° C. for a further 30 minutes. […]

Cn1c(CCCCCCC(=O)NO)nc2cc(N(CCCl)CCCl)ccc21 [EDO-S101, 7-(5-(bis(2-chloroethyl)amino)-1-methyl-1H-benzo[d]imidazol-2-yl)-N-hydroxyheptanamide]
overall median survival [1]: 51 days
CD38 expression at the transcriptional level (qPCR) [2]: increased
binding of daratumumab to MM cells (normalized MFI) [3]: increases
